Test results reported in paper PMC2885599 (Current Chemical Genomics, 2010).

Tests used:
unphosphorylated Met = conditions: cited from earlier work
phosphorylated Met = conditions: read-out: IC50 on phosphorylated Met; cited from earlier work
[1] = tested on: phosphorylated enzyme (c-Met); conditions: phosphorylated vs unphosphorylated enzyme; cited from earlier work
unphosphorylated c-Met = unphosphorylated c-Met (Homo sapiens, UniProt P08581); test: c-Met kinase HTRF assay, unphosphorylated form; assay type: biochemical
[2] = tested on: SNU5 gastric cancer cell line in which c-Met is amplified; test: SNU5 proliferation assay; assay type: cell-based; conditions: Homo sapiens, SNU-5, read-out: IC50 in SNU5 proliferation assays
phosphorylated c-Met = phosphorylated c-Met (Homo sapiens, UniProt P08581); test: c-Met kinase HTRF assay, phosphorylated form; conditions: IC50 on the phosphorylated form
phosphorylated c-Met, sequence (P08581 956-1390 limits assumed): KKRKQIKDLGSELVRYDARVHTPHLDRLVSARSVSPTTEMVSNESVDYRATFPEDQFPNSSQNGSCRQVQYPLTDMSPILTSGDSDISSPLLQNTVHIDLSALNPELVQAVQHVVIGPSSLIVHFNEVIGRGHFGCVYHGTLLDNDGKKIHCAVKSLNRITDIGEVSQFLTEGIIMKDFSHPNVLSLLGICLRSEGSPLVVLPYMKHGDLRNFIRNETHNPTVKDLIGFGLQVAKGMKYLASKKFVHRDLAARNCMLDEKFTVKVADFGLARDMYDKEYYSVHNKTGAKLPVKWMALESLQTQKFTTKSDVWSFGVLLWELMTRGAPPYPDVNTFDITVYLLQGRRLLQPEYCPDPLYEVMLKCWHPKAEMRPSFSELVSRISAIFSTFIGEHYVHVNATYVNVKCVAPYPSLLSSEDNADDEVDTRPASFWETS

unphosphorylated c-Met, sequence (P08581 956-1390 limits assumed): as above

## COc1cc2c(Oc3ccc(-c4cnc(Cc5ccccc5)n(C)c4=O)cc3F)ccnc2cc1OCCCN1CCOCC1 [AM7, 5-(3-fluoro-4-((6-(methyloxy)-7-((3-(4 morpholinyl)prpyl)oxy)-4-quinolinyl)oxy)phenyl)-3-methyl-2-(phenylmethyl)-4(3H)-pyrimidin-one]
Unphosphorylated Met
  fold more potent on unphosphorylated Met: more than 3 fold
Unphosphorylated Met; read-out: IC50 on unphosphorylated Met
  IC50: 5 nM
Phosphorylated Met
  IC50: 17 nM

## CN(C[C@@H]1COCCO1)S(=O)(=O)Nc1ccc2ccc3ncc(-c4cnn(C)c4)cc3c(=O)c2c1 [MK2461]
[1]
  binds to the phosphorylated enzyme tighter: 6 fold

## Cc1[nH]c(/C=C2\C(=O)Nc3ccc(S(=O)(=O)N(C)c4cccc(Cl)c4)cc32)c(C)c1C(=O)N1CCN(C)CC1 [SU11274]
Unphosphorylated c-Met
  difference in potency, phosphorylated vs unphosphorylated form: 55 fold
[2]
  IC50: 30 nM
Phosphorylated c-Met
  IC50: 275 nM
